Laboratory results taken from PubChem BioAssay (NCI).
Where “and” joins values, the source holds several entries; their conditions need not be identical. Identical values can stand only once.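 In this assay, cells in 96-well plates receive the compound at five concentrations for 48 hours. Endpoints are linearly interpolated between the surrounding concentrations. GI50: concentration for 50% inhibition of growth. TGI denotes the concentration required for complete inhibition of growth.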

Assays:
Test in all cases: DTP human tumour cell line panel, 48 h
SF-539 CNS = system: SF-539 CNS
SNB-19 CNS = system: SNB-19 CNS
KM12 colon = system: KM12 colon
RXF 393 renal = system: RXF 393 renal
COLO 205 colon = system: COLO 205 colon
NCI-H226 lung = system: NCI-H226 lung
MDA-MB-231 breast = system: MDA-MB-231 breast
RPMI-8226 leukemia = system: RPMI-8226 leukemia
CAKI-1 renal = system: CAKI-1 renal
NCI-H23 lung = system: NCI-H23 lung

SMILES | GI50 (SF-539 CNS) [µM] | TGI (SF-539 CNS) | GI50 (SNB-19 CNS) | TGI (SNB-19 CNS) [µM] | GI50 (KM12 colon) [µM] | TGI (KM12 colon) | GI50 (RXF 393 renal) [µM] | TGI (RXF 393 renal) | GI50 (COLO 205 colon) [µM] | TGI (COLO 205 colon) | GI50 (NCI-H226 lung) | TGI (NCI-H226 lung) | GI50 (MDA-MB-231 breast) [µM] | TGI (MDA-MB-231 breast) | GI50 (RPMI-8226 leukemia) | TGI (RPMI-8226 leukemia) | GI50 (CAKI-1 renal) [µM] | TGI (CAKI-1 renal) [µM] | GI50 (NCI-H23 lung) [µM] | TGI (NCI-H23 lung)
O=C(Nc1ccc(-n2cc(-c3ccncc3)c(-c3ccc(Cl)c(O)c3)n2)cc1)c1cc(C(F)(F)F)cc(C(F)(F)F)c1 | 2.95 | 13.8 µM | 8.79 µM | > 100 | 4.01 | 16.2 µM | 1.32 | 3.1 µM | 3.17 | 14 µM | 3.63 µM | 18.8 µM | 3.29 | 21.6 µM | 3.86 µM | > 100 µM | 7.48 | 42.9 | 6.09 | 29.5 µM
Cn1cc(-c2ccc3ncc(-c4ccc(CC(=O)Nc5cc(C(C)(C)C)nn5C)cc4)cc3c2)cn1 | 2.22 | > 20 µM | 3.35 µM | > 20 | 0.151 | 3 µM | 1.14 | > 20 µM | 2.78 | > 20 µM | 1.05 µM | 13.3 µM | 2.37 | > 20 µM | 0.64 µM | 4.07 µM | 0.541 | 7.15 | 1.1 | > 20 µM
O=C1Nc2ccc(-c3cccnc3)cc2/C1=C/c1cc(Br)c(O)c(Br)c1 | 5.15 | > 22.4 µM | 9.11 µM | > 25 | 6.59 | 24.8 µM | 6.08 | > 19.9 µM | 11.8 | > 25 µM | 8.43 µM | > 25 µM | 7.41 | > 25 µM | 5.38 µM | 19.7 µM | 4.83 | > 23.7 | 6.86 | > 21.9 µM
OCCNc1nc2ccccc2c2[nH]c3ccccc3c12 | 0.615 | 3.68 µM | 0.345 µM | 3.57 | 0.483 | 4.63 µM | 0.146 | 0.646 µM | 0.329 | 1.37 µM | 0.839 µM | 4.79 µM | 0.611 | 3.63 µM | 0.388 µM | 3.91 µM | 0.529 | 8.9 | 0.496 | 1.88 µM
C[C@]12CCc3nc(Nc4ccc(O)cc4)sc3C1=CC[C@@H]1[C@@H]2CC[C@]2(C)/C(=N/NC(N)=S)CC[C@@H]12 | 1.49 | 3.09 µM | 1.38 µM | 2.94 | 1.26 | 2.74 µM | 1.23 | 2.69 µM | 1.56 | 3.39 µM | 1.71 µM | 4.05 µM | 1.88 | 4.79 µM | 1.49 µM | 5.8 µM | 1.59 | 3.4 | 1.8 | 4.36 µM
Cc1ccccc1Nc1cc(O)c2c(=O)cc(-c3ccccc3)oc2c1 | 3.1 | > 100 µM | 2.98 µM | > 100 | 2.38 | > 100 µM | 2.45 | 9.56 µM |  |  | 4.11 µM | > 100 µM | 3.58 | > 100 µM | 2.87 µM | > 100 µM | 2.77 | > 100 | 4.75 | > 100 µM
CCN1C(=O)N(CC)C2C1NC(=S)N2/N=C/C=C/c1ccccc1 (configuration not stated) | 0.0633 | 0.871 µM | 0.127 µM | > 100 | 0.0924 | > 100 µM | 0.0899 | > 100 µM | 0.213 | 5.44 µM | 0.383 µM | > 100 µM | 0.376 | > 28.1 µM | 0.183 µM | > 64.2 µM | 0.0719 | > 100 | 0.546 | > 100 µM
CC(C)(C)O/N=C/c1cc(NC(=S)c2ccccc2)ccc1Cl |  | 71.4 µM |  | 63.8 |  | 25.7 µM |  | 27.9 µM |  | 27.8 µM |  | 34.7 µM |  | 40.3 µM |  | 41 µM |  | 72.4 |  | 34.1 µM
COc1cccc(-c2cc(=O)c3cc(N4CCN(C)CC4)ccc3[nH]2)c1 | 1.5 | 2.36 µM and 7.13 µM |  | 8.41 | 1.35 | 4.81 µM and 45.4 µM | 0.238 | 5.77 µM and 0.976 µM | 2.02 | 3.55 µM and 10.7 µM | 2.83 µM |  | 2.24 | 9.89 µM and 7.13 µM | 1.93 µM | 6.11 µM | 0.722 | > 100 | 3.45 | 
CC[n+]1c(-c2ccccc2)c2cc(N)ccc2c2ccc(N)cc21 | 0.763 | 4.4 µM and 6.43 µM and 6.19 µM | 0.368 µM and 0.502 µM and 1.43 µM |  | 1.02 | 4.68 µM and 15 µM and 21.9 µM | 1.07 | 3.51 µM and 17.1 µM | 0.612 | 2.24 µM and 7.14 µM | 0.504 µM and 0.723 µM and 2.65 µM | 4.55 µM and 5.64 µM and 13.5 µM | 2.11 | 39.3 µM and 37.3 µM | 2.23 µM and 1.02 µM and 2.64 µM | > 100 µM and 10.4 µM and 24.3 µM | 66.2 | > 100 | 0.515 | 3.65 µM and 5.2 µM and 3.61 µM
OCc1ccc(-c2ccc(-c3ccc(CO)o3)o2)o1 | > 100 | > 100 µM | > 90.8 µM | > 100 | > 100 | > 100 µM | 26.5 | > 90 µM | 18.6 | 48.2 µM | 0.576 µM | 2.59 µM | 33.1 | > 100 µM | > 100 µM | > 100 µM | > 100 | > 100 | > 100 | > 100 µM
O=C1c2cccc3c(N4CCOCC4)ccc(c23)C(=O)N1CCN1CCN(CCCCCN2CCN(CCN3C(=O)c4cccc5c(N6CCOCC6)ccc(c45)C3=O)CC2)CC1 | > 100 | > 100 µM | > 100 µM | > 100 |  |  | 59.8 | > 100 µM | 46.1 | > 100 µM | 87.3 µM | > 100 µM | > 100 | > 100 µM | 23.2 µM | > 100 µM | > 100 | > 100 | 99.8 | > 100 µM
